According to US12398121B2 (Nuvation Bio Inc., priority 2018, dated 2025):

What was measured:
[1] = target: Human recombinant PARP1 (Homo sapiens, UniProt P09874); assay: RBC HotSpot PARP1 radioisotope-based filter binding assay; type: biochemical; details: 2.5 nM enzyme, histone H4, 10 μM 32P-NAD+; read-out: PARP1 IC50
Procedure: (§1) The following methods are for evaluating the in vitro biology properties of the test articles. • a. RBC HotSpot Poly(ADP-ribose) Polymerases 1 (PARP1) and Poly(ADP-ribose) Polymerases 2 (PARP2) Assays: The assay principle is radioisotope-based filter binding assay where incorporation of radioisotope-labeled NAD^+ into the substrate captured on filter is detected after washout free NAD^+. Data were analyzed using Excel and GraphPad Prism software for IC50 curve fits. Each assay was conducted with PJ34 as a positive control. • i. PARP1 assay: Human recombinant PARP1 at a final concentration of 2.5 nM was combined with histone H4 (20 μM) and test articles at various concentrations in reaction buffer (50 mM Tris-HCL, pH 8.0, 50 mM NaCl, 10 mM MgCl2, 1 mM DTT, 1% DMSO, and 20 μg/mL activated DNA). The solution was inoculated for 20 min at room temperature and the reaction initiated by adding [adenylate-^32P]-Nicotinamide Adenine Dinucleotide, ^32P-NAD^+ at a final concentration of 10 μM. After incubation for 2 hour at room temperature, the reaction mixture was filtered and washed with 0.75% phosphoric acid for radioactivity detection. • ii. PARP2 assay: Human recombinant PARP2 at a final concentration of 2.5 nM was combined with histone H3 (20 μM) and test articles at various concentrations in reaction buffer (50 mM Tris-HCL, pH 8.0, 50 mM NaCl, 10 mM MgCl2, 1 mM DTT, 1% DMSO, and 20 μg/mL activated DNA). The solution was inoculated for 20 min at room temperature and the reaction was initiated by adding [adenylate-^32P]-Nicotinamide Adenine Dinucleotide, ^32P-NAD^+ at a final concentration of 10 μM. After incubation for 2 hour at room temperature, the reaction mixture was filtered and washed with 0.75% phosphoric acid for radioactivity detection. • b. AR binding assay: AR in LNCaP cytosol was used for determining the binding affinity of test articles and the reference compound—progesterone (Sigma, Cat: E2785, St. Louis, MO). IC50s were determined using 8 concentrations/compound. Cytosol was plated at 200 μg/well (100 μL) into a 96-well conical polypropylene plate (Agilent, Cat: 5042-1385, Santa Clara, CA) and mixed with 3 μL of test compound. After adding 100 μL of ^3H-methyltrienolone (PerkinElmer, Cat: NET590250UC, San Jose, CA), the plate was sealed and shaken at 300 rpm at 4° C. for 24 hours. Post incubation, 100 μL of radioligand adsorption buffer containing 10 mM Tris-HCl, pH 7.4; 1.5 mM EDTA; 1 mM DTT; 0.25% charcoal; 0.0025% dextran was added to individual well. Plate was shaken for 15 min at 4′C followed by centrifugation at 3000 rpm for 30 min at 4° C. 150 μL of supernatant was transferred into scint-tube (PerkinElmer, Cat: 6000192) and mixed with 2 mL of Ultima Gold Cocktail (PerkinElmer, Cat: 6013329). Radioactivity was counted using a TriCarb 2910 TR scintillation counter (PerkinElmer). Inhibition of the radioactivity by test articles were calculated using the equation below: % Inhibition=(1−(Assay well−Average_LC)/(Average_HC−Average_LC))×100%.

[2] = tested on: LNCaP cells; assay: Cell proliferation assay (CellTiter Glo), LNCaP; type: cell-based; details: Homo sapiens, 168 h, cell growth inhibition, six or seven days total treatment, read-out: LNCaP IC50
Procedure: (§2) IC50 values were calculated and graphed using the model “log(inhibitor) vs. response—Variable slope” included in GraphPad Prism 5 (San Diego, CA). The Ki values were further calculated using the equation below where [L] was the radioligand concentration (1 nM) using in this study. Kd value was 0.332 nM. Ki=IC50/(1+[L]/Kd) c. AR transactivation: Human AR cloned into a CMV vector backbone was used for the transactivation study. HEK-293 cells were plated at 80,000 cells per well of a 24 well plate in DME+5% csFBS. Twenty four hours later, the cells were transfected using Lipofectamine (Invitrogen, Carlsbad, CA) with 0.25 μg GRE-LUC, 0.01 μg CMV-LUC (renilla luciferase) and 25 ng of the AR in OPTIMEM medium. The cells were treated 24 hrs after transfection with various ligands (10^−12 to 10^−5 M final concentrations) and luciferase assay were performed 48 hours after transfection. Firefly values were normalized to renilla luciferase values and the values were represented as relative light units (RLU). Agonist and antagonist assays for the test article were performed in the absence and in the combination with 0.1 nM R1881, respectively. Data were represented as EC50 (for agonists) and IC50 (for antagonists) obtained from four parameter logistics curve. Cell culture and proliferation assays: LNCaP, PC-3, 22RV1, MCF-7, HT-29, and HCT-116 cells were procured from American Type Culture Collection (ATCC). Cells were cultured in medium recommended by the ATCC. Cell culture medium was obtained from Fisher scientific (Waltham, MA) and serum was obtained from Hyclone (San Angelo, TX).
Cells were plated at varying density in the respective growth medium in 96 well plates. 24 hr later, cells were treated, in triplicate or quadruplicate, with test articles prepared in a range of concentrations by series dilution of DMSO stock solutions in growth medium and incubated for three to seven days. The number of viable 22RV1 and HT-29 cells was measured using CellTiter Glo assay (CTG, Promega, Madison, WI) after three days of treatment. The other types of cancer cells were re-treated at three or four days and the number of viable cells was measured using CTG assay after a total treatment time of six or seven days. Cell viability data were plotted using GraphPad Prism (GraphPad Software, Inc., San Diego, CA). In addition, a nonlinear regression model with a sigmoidal dose response and variable slope within GraphPad Prism was used to calculate the IC50 value of individual test articles. Additional cell proliferation assays: Other cancer cell lines are tested in a cell proliferation assay. For example, SK-OV-3 or OVCAR3 ovarian cancer cells are tested. Cells are cultured in medium recommended by the supplier (e.g., ATCC or JCRB Cell Bank), at 37° C. in a 5% CO2 environment. For the proliferation assay, cells are plated in the growth medium in 96 well plates. Seeding density is adjusted according to the cell type. 24 hr later, cells are treated, in triplicate or quadruplicate, with test articles prepared in a range of concentrations by series dilution of DMSO stock solutions in growth medium, and typically incubated for three to seven days, with test article-containing medium replaced after three or four days. The number of viable cells is measured using CellTiter Glo assay (CTG, Promega, Madison, WI) or similar. Cell viability data are plotted using GraphPad Prism (GraphPad Software, Inc., San Diego, CA). […]

[3] = tested on: HCT-116 cells; assay: Cell proliferation assay (CellTiter Glo), HCT-116; type: cell-based; details: Homo sapiens, HCT-116, 168 h; cell growth inhibition, six or seven days total treatment; read-out: HCT-116 IC50
Procedure: as §2
(§3) Cells were plated at varying density in the respective growth medium in 96 well plates. 24 hr later, cells were treated, in triplicate or quadruplicate, with test articles prepared in a range of concentrations by series dilution of DMSO stock solutions in growth medium and incubated for three to seven days. The number of viable 22RV1 and HT-29 cells was measured using CellTiter Glo assay (CTG, Promega, Madison, WI) after three days of treatment. The other types of cancer cells were re-treated at three or four days and the number of viable cells was measured using CTG assay after a total treatment time of six or seven days. Cell viability data were plotted using GraphPad Prism (GraphPad Software, Inc., San Diego, CA). In addition, a nonlinear regression model with a sigmoidal dose response and variable slope within GraphPad Prism was used to calculate the IC50 value of individual test articles. Additional cell proliferation assays: Other cancer cell lines are tested in a cell proliferation assay. For example, SK-OV-3 or OVCAR3 ovarian cancer cells are tested. […] The number of viable cells is measured using CellTiter Glo assay (CTG, Promega, Madison, WI) or similar. […]

[4] = target: Human recombinant PARP2 (Homo sapiens, UniProt Q9UGN5); assay: RBC HotSpot PARP2 radioisotope-based filter binding assay; type: biochemical; details: 2.5 nM enzyme, histone H3, 10 μM 32P-NAD+; read-out: PARP2 IC50
Chain of Human recombinant PARP2 (Q9UGN5 whole entry): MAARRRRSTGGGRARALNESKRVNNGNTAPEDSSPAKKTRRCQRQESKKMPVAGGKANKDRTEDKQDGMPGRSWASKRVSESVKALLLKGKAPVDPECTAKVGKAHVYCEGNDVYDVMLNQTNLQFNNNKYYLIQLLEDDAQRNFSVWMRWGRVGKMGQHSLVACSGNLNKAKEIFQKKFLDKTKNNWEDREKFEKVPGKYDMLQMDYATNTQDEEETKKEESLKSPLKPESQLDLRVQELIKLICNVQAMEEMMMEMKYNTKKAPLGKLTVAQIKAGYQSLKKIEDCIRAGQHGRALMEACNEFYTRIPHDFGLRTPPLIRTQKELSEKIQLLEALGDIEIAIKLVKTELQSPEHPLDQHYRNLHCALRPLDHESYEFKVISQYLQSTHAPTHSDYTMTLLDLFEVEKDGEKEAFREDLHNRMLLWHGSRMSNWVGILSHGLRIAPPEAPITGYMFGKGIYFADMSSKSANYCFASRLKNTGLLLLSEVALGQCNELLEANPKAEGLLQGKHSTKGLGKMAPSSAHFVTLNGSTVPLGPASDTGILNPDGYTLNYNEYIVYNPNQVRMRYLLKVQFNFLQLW
Procedure: as §1

[5] = tested on: PC-3 cells; assay: Cell proliferation assay (CellTiter Glo), PC-3; type: cell-based; details: Homo sapiens, PC-3, 168 h; cell growth inhibition, six or seven days total treatment; read-out: PC-3 IC50
Procedure: as §2, §3

[6] = tested on: 22RV1 cells; assay: Cell proliferation assay (CellTiter Glo), 22RV1; type: cell-based; details: Homo sapiens, 22Rv1, 72 h; cell growth inhibition, three days of treatment; read-out: 22RV1 IC50
Procedure: as §2
Cells were plated at varying density in the respective growth medium in 96 well plates. 24 hr later, cells were treated, in triplicate or quadruplicate, with test articles prepared in a range of concentrations by series dilution of DMSO stock solutions in growth medium and incubated for three to seven days. The number of viable 22RV1 and HT-29 cells was measured using CellTiter Glo assay (CTG, Promega, Madison, WI) after three days of treatment. The other types of cancer cells were re-treated at three or four days and the number of viable cells was measured using CTG assay after a total treatment time of six or seven days. Cell viability data were plotted using GraphPad Prism (GraphPad Software, Inc., San Diego, CA). In addition, a nonlinear regression model with a sigmoidal dose response and variable slope within GraphPad Prism was used to calculate the IC50 value of individual test articles. Additional cell proliferation assays: Other cancer cell lines are tested in a cell proliferation assay. For example, SK-OV-3 or OVCAR3 ovarian cancer cells are tested. Cells are cultured in medium recommended by the supplier (e.g., ATCC or JCRB Cell Bank), at 37° C. in a 5% CO2 environment. For the proliferation assay, cells are plated in the growth medium in 96 well plates. Seeding density is adjusted according to the cell type. 24 hr later, cells are treated, in triplicate or quadruplicate, with test articles prepared in a range of concentrations by series dilution of DMSO stock solutions in growth medium, and typically incubated for three to seven days, with test article-containing medium replaced after three or four days. The number of viable cells is measured using CellTiter Glo assay (CTG, Promega, Madison, WI) or similar. Cell viability data are plotted using GraphPad Prism (GraphPad Software, Inc., San Diego, CA). In addition, a nonlinear regression model with a sigmoidal dose response and variable slope within GraphPad Prism is used to calculate the IC50 value of individual test articles. Similarly, HEK-293 and HeLa calls can also be tested by methods known in the art. • f. Nuclear translocation: LNCaP cells are plated on coverslips in 24 well plates in growth medium. Twenty-four hours after plating, medium is changed to RPMI+1% csFBS and the cells are maintained in this medium for two days. Medium is replaced again and the cells are treated. […]

Chain of Human recombinant PARP1 (P09874 whole entry): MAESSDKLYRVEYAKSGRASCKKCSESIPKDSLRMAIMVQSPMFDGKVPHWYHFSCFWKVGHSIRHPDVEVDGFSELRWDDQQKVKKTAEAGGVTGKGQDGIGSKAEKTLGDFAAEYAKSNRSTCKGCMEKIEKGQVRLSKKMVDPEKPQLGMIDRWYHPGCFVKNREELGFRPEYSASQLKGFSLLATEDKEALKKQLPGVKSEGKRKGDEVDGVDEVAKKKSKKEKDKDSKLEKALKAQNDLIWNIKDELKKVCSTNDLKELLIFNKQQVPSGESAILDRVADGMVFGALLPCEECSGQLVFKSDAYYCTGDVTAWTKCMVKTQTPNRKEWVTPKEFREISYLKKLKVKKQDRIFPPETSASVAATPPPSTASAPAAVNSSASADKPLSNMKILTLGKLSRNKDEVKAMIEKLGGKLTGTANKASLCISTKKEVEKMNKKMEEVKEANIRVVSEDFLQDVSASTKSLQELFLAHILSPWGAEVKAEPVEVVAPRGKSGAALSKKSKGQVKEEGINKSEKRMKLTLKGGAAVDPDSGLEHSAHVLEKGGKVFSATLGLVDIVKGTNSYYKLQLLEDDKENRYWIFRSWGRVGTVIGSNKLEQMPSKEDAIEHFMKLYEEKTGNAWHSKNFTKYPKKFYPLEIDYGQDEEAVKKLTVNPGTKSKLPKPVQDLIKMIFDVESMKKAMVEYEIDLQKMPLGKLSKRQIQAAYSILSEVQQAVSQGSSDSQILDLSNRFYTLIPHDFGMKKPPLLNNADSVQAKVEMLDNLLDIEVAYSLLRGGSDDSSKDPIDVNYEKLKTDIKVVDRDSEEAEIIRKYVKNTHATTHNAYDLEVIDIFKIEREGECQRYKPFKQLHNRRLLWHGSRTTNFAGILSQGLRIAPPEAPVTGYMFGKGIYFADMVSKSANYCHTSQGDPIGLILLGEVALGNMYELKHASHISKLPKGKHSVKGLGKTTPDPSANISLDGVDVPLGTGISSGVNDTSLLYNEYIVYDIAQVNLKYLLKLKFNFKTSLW

Question: With `Cn1ncnc1[C@H]1c2n[nH]c(=O)c3cc(F)cc(c23)N[C@@H]1c1ccc(NC(=O)CCCCCO[C@H]2CC[C@H]3[C@@H]4CC[C@H]5CC(=O)CC[C@]5(C)[C@H]4CC[C@]23C)cc1` [Compound 1.4, 6-(((5S,8R,9S,10S,13S,14S,17S)-10,13-dimethyl-3-oxohexadecahydro-1H-cyclopenta[a]phenanthren-17-yl)oxy)-N-(4-(5-fluoro-9-(1-methyl-1H-1,2,4-triazol-5-yl)-3-oxo-2,7,8,9-tetrahydro-3H-pyrido[4,3,2-de]phthalazin-8-yl)phenyl)hexanamide] as the compound, how does the IC50 [1] read?
Answer: 2 nM

Question: And the IC50 [2]?
Answer: 90 nM

Question: And the IC50 [3]?
Answer: 110 nM

Question: And the IC50 [4]?
Answer: 0.4 nM

Question: And the IC50 [5]?
Answer: 20 nM

Question: Which IC50 [1] does the source give for `C[C@](O)(CS(=O)(=O)c1ccc(OCCCCCCN2CCN(C(=O)c3cc(Cc4n[nH]c(=O)c5ccccc45)ccc3F)CC2)cc1)C(=O)Nc1ccc(C#N)c(C(F)(F)F)c1` [Compound 1.96, (R)-N-(4-cyano-3-(trifluoromethyl)phenyl)-3-(4-(6-(4-(2-fluoro-5-((4-oxo-3,4-dihydrophthalazin-1-yl)methyl)benzoyl)piperazin-1-yl)hexyloxy)phenylsulfonyl)-2-hydroxy-2-methylpropanamide] here?
Answer: 6 nM

Question: And the IC50 [4]?
Answer: 0.5 nM

Question: With `C[C@]12CCCC[C@@H]1CC[C@@H]1[C@@H]2CC[C@]2(C)[C@@H](OCCCCCC(=O)N3CCN(C(=O)c4cc(Cc5n[nH]c(=O)c6ccccc56)ccc4F)CC3)CC[C@@H]12` [Compound 1.115] as the compound, how does the IC50 [1] read?
Answer: 25.7 nM

Question: What about the IC50 [4] of the same compound?
Answer: 1.5 nM

Question: With `Cn1ncnc1[C@@H]1c2n[nH]c(=O)c3cc(F)cc(c23)N[C@H]1c1ccc(NC(=O)CCCCCNC(=O)c2ccc(N3C(=S)N(c4ccc(C#N)c(C(F)(F)F)c4)C(=O)C3(C)C)cc2F)cc1` [ent-1.3, 4-(3-(4-cyano-3-(trifluoromethyl)phenyl)-5,5-dimethyl-4-oxo-2-thioxoimidazolidin-1-yl)-2-fluoro-N-(6-((4-((8R,9S)-5-fluoro-9-(1-methyl-1H-1,2,4-triazol-5-yl)-3-oxo-2,7,8,9-tetrahydro-3H-pyrido[4,3,2-de]phthalazin-8-yl)phenyl)amino)-6-oxohexyl)benzamide] as the compound, how does the IC50 [1] read?
Answer: 79 nM

Question: And the IC50 [2]?
Answer: > 100000 nM

Question: And the IC50 [4]?
Answer: 16 nM

Question: What does the source list for `Cn1ncnc1[C@H]1c2n[nH]c(=O)c3cc(F)cc(c23)N[C@@H]1c1ccc(NC(=O)CCCCCNC(=O)c2ccc(N3C(=S)N(c4ccc(C#N)c(C(F)(F)F)c4)C(=O)C3(C)C)cc2F)cc1` [Compound 1.3, 4-(3-(4-cyano-3-(trifluoromethyl)phenyl)-5,5-dimethyl-4-oxo-2-thioxoimidazolidin-1-yl)-2-fluoro-N-(6-((4-((8S,9R)-5-fluoro-9-(1-methyl-1H-1,2,4-triazol-5-yl)-3-oxo-2,7,8,9-tetrahydro-3H-pyrido[4,3,2-de]phthalazin-8-yl)phenyl)amino)-6-oxohexyl)benzamide]?
Answer: IC50 [1]: 2 nM; IC50 [2]: 490 nM; IC50 [3]: > 30000 nM; IC50 [4]: 0.5 nM; IC50 [5]: 8800 nM

Question: With `C[C@]12CC[C@@H]3c4ccc(O)cc4CC[C@H]3[C@@H]1CC[C@@H]2OCCCCCC(=O)N1CCN(C(=O)c2cc(Cc3n[nH]c(=O)c4ccccc34)ccc2F)CC1` [Compound 2.2, 4-(4-fluoro-3-(4-(6-((8R,9S,13S,14S,17S)-3-hydroxy-13-methyl-7,8,9,11,12,13,14,15,16,17-decahydro-6H-cyclopenta[a]phenanthren-17-yloxy)hexanoyl)piperazine-1-carbonyl)benzyl)phthalazin-1(2H)-one] as the compound, how does the IC50 [6] read?
Answer: 390 nM
